Patent publication US20190328016A1, “SALT COMPOSITION INCLUDING SARCOSINE” (NESTEC S.A., priority 2016, published 2019)

Test system: trained panellists
Assay: Sensory evaluation of tablets by 11 trained panellists
Assay type: in vivo
Description: Bars coloured black denote a significant difference in a particular taste/sensory characteristic. Unshaded bars denote that there is no significant difference in the characteristic. A positive number represents an increased sensory response of the co-crystal compared to the physical mixture.
Tablets for sensory evaluation were prepared using a Romaco Kilian Styl'One single-stroke tablet press. […] The tablets were prepared with three compressions of 300 ms and an interval of 200 ms.
Each of the panellists received a tray with two tablets presented on plastic plates coded with random 3-digit numbers. The tablets had to be crunched with the front teeth and kept in mouth to dissolve slowly (method 1). Alternatively, tablets could be crunched with the front teeth and chewed constantly in the mouth until complete dissolution occurred (method 2).
Afterwards the panellists were asked to rate the taste of the tablets in respect of the following 12 categories: upfront saltiness (1), overall saltiness (2), sweetness (3), sourness (4), umami (5), friable (6), melting (7), overall persistence (8), saltiness persistence (9), sweetness persistence (10), sourness persistence (11), and tingling (12).

## N[C@@H](CO)C(=O)O.N[C@@H](CO)C(=O)O.[Cl-].[Na+] [(L-serine)2.sodium chloride co-crystals, (L-serine)2.sodium chloride]
25 mg sodium chloride per tablet, during and after consumption
  perceived salty taste versus corresponding physical mix: significantly more salty
11 trained panellists, FIG. 2
  overall saltiness versus physical mix: superior
  saltiness persistence versus physical mix: superior
  upfront saltiness versus physical mix: superior
